63 compounds from a melting point compilation (Tetko et al.; mined from patent text by program, amines drawn as free bases though some values may be those of a salt) can be followed below.

Usually melting point stands for the temperature of the solid-liquid transition.

`COc1cc(Nc2c(C#N)cnc3cc(OS(=O)(=O)C(F)(F)F)c(OC)cc23)c(Cl)cc1Cl` gave a melting point of 220 to 223 °C.

`CCCCc1nn(-c2cccc(N)c2)c(=O)n1Cc1ccc(-c2ccccc2S(=O)(=O)NC(=O)c2ccccc2Cl)cc1` yielded a melting point of 137 to 139 °C.

In turn, `OCCCCc1cn(C(c2ccccc2)(c2ccccc2)c2ccccc2)cn1` displayed a melting point of 144 to 146 °C.

For `CC(C)(C)C(=O)C1=C(O)C(=O)N(c2ccc(-c3ccon3)cc2)C1C1CCCCC1` (stereo not drawn), the melting point lay within 259 to 260 °C.

In the case of `CC(C(=O)O)c1ccc(C(=O)c2ccc(Cl)cc2)n1C` (stereo not drawn), the melting point was 139 to 141 °C.

The compound `COc1ccc(-c2cc3cc(F)c(F)cc3[nH]2)cc1NCc1cccc(C#N)c1` showed a melting point of 154 to 155 °C.

In turn, `Nc1cccc(Cl)c1O` came in with a melting point of 113 to 114 °C.

On to `COc1ccc(C(=O)C2=C(O)C(=O)N(c3ccc(C)nn3)C2c2ccc(OC)cc2)cc1` (stereo not drawn), for which the melting point is 259 °C.

In turn, `COC(=O)CCC#Cc1cc(Cl)ccc1NS(=O)(=O)c1cccc(C)c1` displayed a melting point of 69 °C.

In turn, `CC(=O)Nc1nc(C)c(S(=O)(=O)N2CCC(O)C2)s1` (racemic) returned a melting point of 241 °C.

Take `CN(C)/C=C/C(=O)c1ccc(OCCCCN2C(=O)c3ccccc3C2=O)cc1`: the melting point is 109 to 111 °C.

`CCCCc1cn(Cc2ccc(-c3ccccc3C(=O)O)cc2)c2cc(C(=O)O)ccc2c1=O` gave a melting point of over 260 °C.

On to `O=C1NCC=NN1c1ccc(Cc2ccc(Cl)cc2)c(Cl)c1`, for which the melting point was in the range of 196 to 197 °C.

Compound `Cc1c(C)c2ccc(OCCCN3CCC(NC(=O)c4ccccc4)CC3)cc2oc1=O` came in with a melting point of 201 to 203 °C.

In the case of `N#Cc1c(N2CCN(C(=O)c3cccs3)CC2)c2cc(F)cnc2n(Cc2ccccc2)c1=O`, the melting point came to 173 °C.

`CC(C)C(C)(C(N)=O)N1C(=O)c2ccc3ccsc3c2C1=O` (stereo not drawn) had a melting point of 199 to 200 °C.

In turn, `O=C(O)CCc1conc1-c1ccc(-c2ccccc2)cc1` returned a melting point of 169 to 170 °C.

The compound `C=CCc1c(C)cc(C)c(C(C)O)c1-c1ccc(F)cc1` (stereo not drawn) had a melting point of 92 °C.

Compound `N#Cc1c2ccccc2c(-c2cc(Br)c(O[C@@H](Cc3ccccc3)C(=O)O)c(Br)c2)c2c1sc1ccccc12` registered a melting point of 176 to 178 °C.

Regarding `CC(C)(C)OC(=O)N1CCc2cc3ccccc3n2CC1`, the melting point fell in the range of 129 to 132 °C.

`O=C(Nc1ccc2cc(CN3CCCCC3)ccc2c1)N1CCC(c2ccc(F)cc2)CC1` returned a melting point of 209 to 211 °C.

As to `O=S1(=O)c2cccc3cccc(c23)N1CCCN1CCN(c2nsc3ccccc23)CC1`, the melting point lay within 172 to 173 °C.

`COC(=O)C1=C(C)NC(C)=C(C(=O)NCCCN2CCN(c3ccccc3OC)CC2)C1c1cccc([N+](=O)[O-])c1` (stereo not drawn) registered a melting point of 70 to 80 °C.

On to `Cc1cc(C)c2c(-c3coc4cc(C)cc(C)c34)coc2c1`, for which the melting point fell in the range of 98 to 100 °C.

`Cc1cccc(NC2=NCCO2)c1C` came in with a melting point of 112 to 114 °C.

The compound `C#CC(Cc1ccc(OC)c(OC2CCCC2)c1)C(=O)O` (stereo not drawn) registered a melting point of 109 to 110 °C.

Compound `O=[N+]([O-])c1cc(C(F)(F)F)ccc1Sc1nc(-c2ccc(Cl)cc2)c(-c2ccc(Cl)cc2)[nH]1` gave a melting point of 264 to 266 °C.

`CC(C)(C)OC(=O)N1CCN(CCC(N)=O)CC1` returned a melting point of 96 to 98 °C.

Compound `Cc1ccc(C(=O)c2noc(CC(N)=O)n2)cc1` showed a melting point of 169 to 171 °C.

In turn, `O=C(O)C(O)=CC(=O)c1cn(Cc2ccccc2)c(=O)n(Cc2ccccc2)c1=O` had a melting point of 186 to 188 °C.

Take `Cc1ccc(S(=O)(=O)N2CC3=C(C2)C(Cc2ccccc2)NCC3)cc1` (stereo not drawn): the melting point is 196 °C.

Turning to `N#CCn1nnnc1S`, the melting point is 116 to 118 °C.

Take `COc1cc(CCC(=O)O)cc(I)c1O`: the melting point was in the range of 96 to 97 °C.

With `O=[N+]([O-])c1cc(O)c(F)cc1F`, the melting point was 117 to 119 °C.

`CS(=O)(=O)c1ccc(-c2cnn(CC(F)(F)F)c(=O)c2-c2ccc(F)c(Cl)c2)cc1` registered a melting point of 165 to 166 °C.

`Cc1sc(N)nc1-c1ccc(CCN2CCN(c3cccc(C(F)(F)F)c3)CC2)cc1` showed a melting point of 110 to 115 °C.

`CC(=O)c1c(-c2ccsc2)sc(-c2ccncc2)c1C` yielded a melting point of 98 to 100 °C.

With `Nc1nc(-c2ccc(NC(=O)CN(Cc3ccccc3)C(=O)C3CCCCC3)cc2)cs1`, the melting point lay in the range of 214 to 216 °C.

Regarding `COc1ncnc2c(Cl)c(NC(=S)NCCN)ccc12`, the melting point lay within 230 to 232 °C.

`O=C(Nc1cccc(-n2nc(C(F)(F)F)cc2C(F)(F)F)c1)c1cc([N+](=O)[O-])ccc1Cl` registered a melting point of 147 to 152 °C.

In turn, `CS(=O)(=O)c1ccc(C2=C(c3cccc(F)c3)CN(C3CC3)C2=O)cc1` yielded a melting point of 179 to 180 °C.

Turning to `Cc1ccccc1CC(=NC#N)NC(NC(=O)CCCCc1ccccc1)C(C)(C)C` (stereo not drawn), the melting point fell in the range of 151 to 152 °C.

As for `O=Cc1cc2cc(Cl)c(Cl)cc2[nH]1`, the melting point lay in the range of 188 to 190 °C.

Regarding `O=c1nc(-c2ccccc2)c2cc([N+](=O)[O-])ccc2n1CC1CC2CCC1C2` (stereo not drawn), the melting point was 160 °C.

`CC(C)CCN1CCC(N(C)S(=O)(=O)c2ccc(Nc3nccc(Nc4ccc(F)cc4)n3)cc2)CC1`: the melting point was 184 to 185 °C.

Turning to `COC(=O)COc1ccc(C)c2c1c1c(n2Cc2ccccc2)CCCC1C(N)=O` (stereo not drawn), the melting point amounted to 209 °C.

Consider `Clc1ncc(-c2ccccc2)cn1`, for which the melting point lay in the range of 130 to 132 °C.

Regarding `CNS(=O)(=O)CCc1ccc2[nH]cc(CCN=Cc3ccccc3)c2c1`, the melting point is 146 to 148 °C.

`c1ccc(SC2CCN(C(c3ccccc3)c3ccccc3)CC2)cc1` gave a melting point of 118 to 119 °C.

`CCCC[C@@H](NC(=O)[C@H](Cc1ccc(O)cc1)NC(=O)OC(C)(C)C)C(=O)NCC(=O)O` gave a melting point of 174 to 175 °C.

As to `Cc1cc2cccc(-c3ccc(Cl)cc3Cl)n2n1`, the melting point lay within 86.9 to 90 °C.

In turn, `CC(C)(C)OC(=O)N1C[C@@H]2[C@H](F)CCC(c3ccccc3)(c3ccccc3)[C@@H]2C1` yielded a melting point of 200 °C.

On to `O=[N+]([O-])c1cc(Cl)ccc1N1CCc2ccccc21`, for which the melting point is 97 to 99 °C.

With `CC(=NOCCO)c1ccc(-c2ccccc2)nc1`, the melting point was 76 °C.

With `CC(=O)N1CCN=C1Nc1cccc2c1CCCC2`, the melting point was in the range of 142 to 144 °C.

For `O=C(c1ccccc1)c1cc2c3ccccc3[nH]c(=O)n2n1`, the melting point was 308 to 311 °C.

With `Cc1cn(C2CCCCC2)c(=O)[nH]c1=S`, the melting point is 177 to 178 °C.

Regarding `CN(C(=O)c1cccc(F)c1[Si](C)(C)C)C(C)(C)C`, the melting point was 32 to 35 °C.

`CS(=O)(=O)N[C@H]1C[C@H](C(=O)O)Nc2cc(Cl)cc(Cl)c21` (relative stereo): the melting point lay in the range of 194 to 195 °C.

`COC(=O)C1CCN(CCc2ccc(OC)cc2)CC1` came in with a melting point of 66 to 68 °C.

For the compound `O=C1CSc2cccc(F)c2N1`, the melting point was 190 to 191 °C.

As for `N#Cc1ccc(Oc2ccc([N+](=O)[O-])c(Oc3ccccc3)c2Cl)cc1`, the melting point was 140 to 142 °C.

Turning to `Cn1c2ccccc2c2sc3ccccc3c21`, the melting point lay within 175 to 176 °C.
